Patent US11279733B2, “Peptide antibiotics” (priority 2017, dated 2022)
Converted amounts (≈) assume the structure as drawn. Like-named read-outs stand apart in the source and are kept apart here. Positions of bridges follow the written chain, without caps; N, C: chain ends. Non-standard residues stand in square brackets, D forms with d. Residues, ends and D or L forms follow the SMILES beside them. *: point of attachment. Decanoyl(3R-OH) = CCCCCCC[C@@H](O)CC(=O)*; Nonanoyl = CCCCCCCCC(=O)*; Octanoyl = CCCCCCCC(=O)*; dDap = NC[C@@H](N)C(=O)O; Dab = NCC[C@H](N)C(=O)O

Tests used:
[1] = test system: S. aureus ATCC 25923, MSSA; details: ATCC 25923
In short: (§1)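 Mid-log cultures grown in Mueller Hinton broth at 37° C were tested by 2-fold broth microdilution at 5×10^5 CFU/mL final. Compounds were dissolved in water and tested over a final range of 32 to 0.015 μg/mL.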

[2] = test system: K. pneumoniae ATCC 700603, MDR; details: ATCC 700603
In short: as §1

[3] = test system: E. coli ATCC 25922; details: ATCC 25922
In short: as §1

[4] = test system: K. pneumoniae GN_102 PmxR; details: GN 102 PmxR
In short: as §1

[5] = test system: A. baumannii ATCC 19606; details: ATCC 19606
In short: as §1

[6] = test system: A. baumannii GN_093 PmxR; details: GN 093 PmxR
In short: as §1

[7] = test system: K. pneumoniae ATCC BAA-2146, NDM-1 pos; details: ATCC BAA-2146
In short: as §1

[8] = test system: P. aeruginosa GN_105, PmxR; details: GN 105, PmxR
In short: as §1

[9] = test system: P. aeruginosa GN_043, PmxR
In short: as §1

[10] = test system: P. aeruginosa ATCC 27853; details: ATCC 27853
In short: as §1

[11] = test system: K. pneumoniae GN_106, PmxR; details: GN 106, PmxR
In short: as §1

[12] = test system: K. pneumoniae ATCC 13883; details: ATCC 13883
In short: as §1

| SMILES | MIC S. aureus ATCC 25923, MSSA [1] [µg/mL] | MIC K. pneumoniae ATCC 700603, MDR [2] [µg/mL] | MIC E. coli ATCC 25922 [3] [µg/mL] | MIC K. pneumoniae GN_102 PmxR [4] [µg/mL] | MIC A. baumannii ATCC 19606 [5] [µg/mL] | MIC A. baumannii GN_093 PmxR [6] [µg/mL] | MIC K. pneumoniae ATCC BAA-2146, NDM-1 pos [7] [µg/mL] | MIC P. aeruginosa GN_105, PmxR [8] [µg/mL] | MIC P. aeruginosa GN_043, PmxR ([9]; P. aeruginosa GN_043, PmxR) [µg/mL] | MIC P. aeruginosa ATCC 27853 [10] [µg/mL] | MIC K. pneumoniae GN_106, PmxR [11] [µg/mL] | MIC K. pneumoniae ATCC 13883 [12] [µg/mL] | MIC P. aeruginosa GN_043, PmxR ([9]; polymyxin-resistant) [µg/mL] |
| --- | --- | --- | --- | --- | --- | --- | --- | --- | --- | --- | --- | --- | --- |
| CCCCCCC[C@@H](O)CC(=O)N[C@H](CN)C(=O)N[C@H]1CCNC(=O)[C@H](CC(C)C)NC(=O)[C@H](CCN)NC(=O)[C@H](CCN)NC(=O)[C@H](CC(C)C)NC(=O)[C@@H](CC(C)C)NC(=O)[C@H](CCN)NC1=O [compound 8977, nC10-3(R)OH-D-Dap-(L-Dab-L-Dab-D-Leu-L-Leu-L-Dab-L-Dab-L-Leu)] ({Decanoyl(3R-OH)}-[dDap][Dab][Dab][dL]L[Dab][Dab]L; lactam 2-C) | 32 (≈ 32.1 µM) | 4 (≈ 4.01 µM) | 4 (≈ 4.01 µM) | 2 (≈ 2.01 µM) | 8 (≈ 8.03 µM) | 2 (≈ 2.01 µM) | 8 (≈ 8.03 µM) | 2 (≈ 2.01 µM) | 2 (≈ 2.01 µM) | 4 (≈ 4.01 µM) | 4 (≈ 4.01 µM) | 8 (≈ 8.03 µM) | – |
| CCCCCCCC(=O)N[C@H](CN)C(=O)N[C@H]1CCNC(=O)[C@H](CC(C)C)NC(=O)[C@H](CCN)NC(=O)[C@H](CCN)NC(=O)[C@H](CC(C)C)NC(=O)[C@@H](CC(C)C)NC(=O)[C@H](CCN)NC1=O [compound 8978, nC7CO-D-Dap-cyc[L-Dab-L-Dab-D-Leu-L-Leu-L-Dab-L-Dab-L-Leu]] (Octanoyl-[dDap][Dab][Dab][dL]L[Dab][Dab]L; lactam 2-C) | >32 | 16 (≈ 16.8 µM) | 4 (≈ 4.2 µM) | 32 (≈ 33.6 µM) | 32 (≈ 33.6 µM) | 8 (≈ 8.4 µM) | 16 (≈ 16.8 µM) | 2 (≈ 2.1 µM) | 4 (≈ 4.2 µM) | 2 (≈ 2.1 µM) | 32 (≈ 33.6 µM) | 16 (≈ 16.8 µM) | – |
| CCCCCCCCC(=O)N[C@@H](CCN)C(=O)N[C@H](C(=O)N[C@@H](CCN)C(=O)N[C@H]1CCNC(=O)[C@H](Cc2c[nH]c3ccccc23)NC(=O)[C@H](CCN)NC(=O)[C@H](CCN)NC(=O)[C@H](CC(C)C)NC(=O)[C@@H](Cc2ccccc2)NC(=O)[C@H](CCN)NC1=O)[C@@H](C)O [compound 9032, nC8CO-L-Dab-L-Thr-L-Dab-cyc[L-Dab-L-Dab-D-Phe-L-Leu-L-Dab-L-Dab-L-Trp]] (Nonanoyl-[Dab]T[Dab][Dab][Dab][dF]L[Dab][Dab]W; lactam 4-C) | 16 (≈ 12.4 µM) | 8 (≈ 6.21 µM) | 4 (≈ 3.1 µM) | 4 (≈ 3.1 µM) | 8 (≈ 6.21 µM) | 8 (≈ 6.21 µM) | 8 (≈ 6.21 µM) | 2 (≈ 1.55 µM) | – | 2 (≈ 1.55 µM) | 4 (≈ 3.1 µM) | 8 (≈ 6.21 µM) | 1 (≈ 0.776 µM) |
